This note sets out measurements from publication PMC8831520, “Small molecule SWELL1 complex induction improves glycemic control and nonalcoholic fatty liver disease in murine Type 2 diabetes” (Nature Communications, 2022).

The test system of series [1] is T1, SWELL1 protein in 3T3-F442A adipocytes.
T1 construct: host or cells: 3T3-F442A preadipocytes and differentiated adipocytes (wild type)
Briefly: SWELL1 protein western blot in adipocytes. It counts as cell-based, murine. To be noted: for SWELL1 protein level relative to vehicle-treated controls: 10 and 1 μM, 4 days, then 6 h serum starving. The protocol:
(§1) In the case of 3T3-F442A adipocytes, the WT and KO cells were treated with either vehicle (DMSO), 1 or 10 µM SN-40X (after 7–11 days of differentiation) for 96 h and then stimulated with 0 and 10 nM insulin/serum-containing media with vehicle (DMSO) or SN-40X for 15 min for SWELL1 detection. […] To simulate glucolipotoxicity, 8 mM sodium palmitate was dissolved in 18.4% fatty-acid free BSA at 37 °C in DMEM medium with 25 mM glucose to obtain a conjugation ratio of 1:3 palmitate:BSA[80].
Adipocytes were washed twice in ice-cold phosphate buffer saline and lysed in RIPA buffer (150 mM NaCl, 20 mM HEPES, 1% NP-40, 5 mM EDTA, pH 7.4) with proteinase/phosphatase inhibitors (Roche). The cell lysate was further sonicated in 10 s cycle intervals 2–3 times and centrifuged at 18,407×g for 30 min at 4 °C and repeated one more time to remove the excess fat. The supernatant was collected and further estimated for protein concentration using a DC protein assay kit (Bio-Rad). Fat and liver tissues were homogenized and suspended in RIPA buffer with inhibitors and further processed in a similar fashion as described above. HUVECs were also prepared in a similar fashion except the lysates were spun only once to remove the cells debris to obtain the clear supernatant. For islets, either human or mouse islets were washed twice with phosphate buffer saline (PBS) and lysed using RIPA buffer containing protease and phosphatase inhibitors. The lysate was further clarified by freezing in liquid nitrogen for about 10 s for three cycles. The supernatant was collected from the whole lysate centrifuged at 16,260×g for 20 min at 4 °C. […] For soleus muscle, the tissue was homogenized in a Bullet Blender homogenizer (Speed-9, Time-3 mins) in 8 volumes of ice-cold muscle homogenization buffer (50 mM Tris, 25 mM NaCl, 0.2% Nonidet P-40, 5 mM EGTA, 2.5 mM EDTA, 20 mM NaF, 20 mM Na4P2O7·10H2O, 2 mM Na3VO4, pH 7.4) supplemented with protease/phosphatase inhibitor (Roche). The homogenized lysate was centrifuged two times at 18,500×g for 20 min at 4 °C and supernatant was collected for protein estimation. Protein samples were further prepared by boiling in 2X or 4X Laemmli buffer. Approximately 10–60 µg of total protein was loaded in 4–15% gradient gel (Bio-Rad) for separation and protein transfer was carried out onto the PVDF membranes (Bio-Rad). Membranes were blocked in 5% BSA (or 5% milk for SWELL1) in TBST buffer (0.2 M Tris, 1.37 M NaCl, 0.2% Tween-20, pH 7.4) for 1 h and incubated with appropriate primary antibodies (5% BSA or milk) overnight at 4 °C. […] The images were further analyzed for band intensities using ImageJ software. […]

Series [2] has the same test system. Briefly: SWELL1 protein under glucolipotoxic stress (palmitate + glucose). It is filed as cell-based, murine. To be noted: 10 µM 96 h pretreatment, then 1 mM palmitate + 25 mM glucose 16 h. The protocol: as §1
The next series concerns T2D and non-T2D mice. Nature of the series: Metabolic phenotyping: fasting glucose, GTT, ITT. The protocol:
All compounds were dissolved in Kolliphor® EL (Sigma, #C5135).
Mice were fasted for 6 h prior to glucose tolerance tests (GTT). Baseline glucose levels at 0 min timepoint (fasting glucose, FG) were measured from a blood sample collected from tail snipping using glucometer (Bayer Healthcare LLC). Either 1 or 0.75 g D-Glucose/kg body weight were injected (i.p.) for lean or HFD mice, respectively and glucose levels were measured at 5 or 7, 15, 30, 60, 90, and 120 min timepoints after injection. For insulin tolerance tests (ITTs), the mice were fasted for 4 h. Similar to GTTs, the baseline blood glucose levels were measured at 0 min timepoint and 15, 30, 60, 90, and 120 min timepoints post-injection (i.p.) of insulin (HumulinR, 1 U/kg bodyweight for lean mice or 1.25 U/kg body weight for HFD mice). […] The collected plasma was then measured for insulin content by using Ultra-Sensitive Mouse Insulin ELISA Kit (Crystal Chem, #90080). All mouse studies were performed in a blinded fashion.

The test system of series [3] is T2, SWELL1-LRRC8 channels in the closed state, HEK-293 cells.
T2 construct: applied when the endogenous HEK-293 cell ICl,SWELL current density reached 30 pA/pF; endogenous in cells; host or cells: HEK-293 (ATCC, #CRL-1573)
Nature of the series: ICl,SWELL inhibition on preincubation before hypotonic activation (closed channel), patch-clamp. It is filed as cell-based. Particulars: 1 μM applied 30 min prior to hypotonic activation, vs vehicle or Inactive compounds.

[4] abbreviates: 12–18 weeks HFD mice, 5 mg/kg/day × 4 days, pre- vs post-treatment.

On to `CCCCC1(C2CCCC2)Cc2cc(OCC(=O)O)c(Cl)c(Cl)c2C1=O` (stereo not drawn) [Inactive 1, 2-((2-butyl-6,7-dichloro-2-cyclopentyl-1-oxo-2,3-dihydro-1H-inden-5-yl)oxy)acetic acid], for which, in series [1], the “SWELL1 protein level relative to vehicle-treated controls” value is “did not significantly increase”.

With `CCCCC1(C2CCCC2)Cc2cc(OCCCCCC(=O)O)c(Cl)c(Cl)c2C1=O` (stereo not drawn) [SN-406, 6-((2-butyl-6,7-dichloro-2-cyclopentyl-1-oxo-2,3-dihydro-1H-inden-5-yl)oxy)hexanoic acid], in series [2], the “prevention of palmitate/glucose-induced reduction of SWELL1 protein” value is reported as “entirely prevented”. Besides, in the series on T2D and non-T2D mice (setting [4]), the fasting blood glucose result is on record as “markedly reduced”. Moreover, the glucose tolerance result in the series on T2D and non-T2D mice (setting [4]) is “improved”; in the series with T2D and non-T2D mice (HFD-T2D mice, separate experiment, compared to Inactive 1), “significantly improved”. Further, the “insulin sensitivity based on HOMA-IR” value with T2D and non-T2D mice (HFD-T2D mice, compared to Inactive 1) is recorded as “trend toward improved insulin sensitivity”. In series [3], the “subsequent hypotonic activation of ICl,SWELL” value is “markedly suppressed and delayed”. Moreover, the “SWELL1 protein level relative to vehicle-treated controls” value in series [1] is recorded as 1.5–2.1 fold.

On to `CCCCC1(C2CCCC2)Cc2cc(OCCCC(=O)O)c(Cl)c(Cl)c2C1=O` (stereo not drawn) [SN-401, 4-((2-butyl-6,7-dichloro-2-cyclopentyl-1-oxo-2,3-dihydro-1H-inden-5-yl)oxy)butanoic acid], for which the “prevention of palmitate/glucose-induced reduction of SWELL1 protein” value in series [2] is “entirely prevented”. In addition, the “fasting blood glucose (FG), glucose tolerance (GTT), and insulin tolerance (ITT)” value in the series on T2D and non-T2D mice (HFD-fed and KKAy T2D mice, 5 mg/kg i.p. 4–10 days) was “improved”. Besides, the “hypoglycemia in control strain” value in the series on T2D and non-T2D mice (KKAa parental strain, 5 mg/kg × 4–10 days) is recorded as “does not cause hypoglycemia”. In addition, the “FG, GTT, and ITT compared to vehicle” value was “similar” in the series on T2D and non-T2D mice (lean, non-T2D, glucose-tolerant mice); “marked improvements” in the series on T2D and non-T2D mice (same mice after 16 weeks of HFD-feeding, 4 days treatment). Further, the “subsequent hypotonic activation of ICl,SWELL” value in series [3] is “markedly suppressed and delayed”. This compound returned an SWELL1 protein expression in series [1] (3T3-F442A adipocytes, 10 µM, 96 h) of 1.5 fold control expression.
